Data: patent US6649614B2, “Use of a NK-1 receptor antagonist and an antidepressant and/or an anti-anxiety agent for treatment of depression or anxiety” (Merck Sharp & Dohme Ltd., priority 1996, dated 2003)

Experiments:
guinea-pig pups = assay: Separation-induced vocalisation in guinea-pig pups; assay type: in vivo; details: for attenuation of separation-induced vocalisations compared with baseline: 30 minutes before isolation
Source text: ASSAY 2: Separation-induced Vocalisation
Male and female guinea-pigs pups are housed in family groups with their mothers and littermates throughout the study. Experiments are commenced after weaning when the pups are at least 2 weeks old. Before entering an experiment, the pups may be screened to ensure that a vigorous vocalisation response is reproducibly elicited following maternal separation. The pups are placed individually in an observation cage (approximately 55 cm×39 cm×19 cm) in a room physically isolated from the home cage for approximately 15 minutes and the duration and/or number of vocalisation during this baseline period is recorded. […] The duration and/or number of vocalisation on drug treatment days may be expressed as a percentage of the pre-treatment baseline value for each animal or compared with values obtained in vehicle-treated animals. The same subjects may be retested once weekly for up to 6 weeks.

gerbils = assay: Gerbil foot-tapping (CNS penetration) assay; assay type: in vivo, Mongolian gerbil (Meriones unguiculatus); details: for gerbil foot-tapping (5 mins.) ID50 / gerbil foot-tapping (24 hrs.) ID50: i.v.; for gerbil foot-tapping (5 mins.) ID50: 5 mins. before central NK-1 agonist challenge; for gerbil foot-tapping (24 hrs.) ID50: 24 hrs. before central NK-1 agonist challenge
Source text: ASSAY 3: Gerbil Foot-tapping (CNS Penetration) Assay
CNS-penetrant NK-1 receptor antagonists for use in the present invention can be identified by their ability to inhibit foot tapping in gerbils induced by anxiogenic agents (such as pentagastrin) or central infusion of NK-1 receptor agonists such as GR73632, or caused by aversive stimulation such as foot shock or single housing, based on the method of Rupniak & Williams, Eur. J. Pharmacol., 1994, 265, 179.
Male or female Mongolian gerbils (35-70 g) are anaesthetised by inhalation of an isoflurane/oxygen mixture to permit exposure of the jugular vein in order to permit administration of test compounds or vehicle in an injection volume of approximately 5 ml/kg i.v. Alternatively, test compounds may be administered orally or by subcutaneous or intraperitoneal routes. A skin incision is then made in the midline of the scalp to expose the skull.

ferrets = assay: Ferret emesis (cisplatin-induced); assay type: in vivo; details: p.o., 60 minutes before cisplatin 10 mg/kg i.v.
Source text: ASSAY 4: Ferret Emesis […]

CNCCC(Oc1ccc(C(F)(F)F)cc1)c1ccccc1 (stereo not drawn) [fluoxetine, reference compound]
attenuation of separation-induced vocalisations compared with baseline (guinea-pig pups; 2 mg/kg i.p. alone): approximately 25% | guinea-pig vocalisation ID50 (guinea-pig pups; i.p.): 2.7 mg/kg i.p.

C[C@@H](O[C@@H]1OCCN(Cc2nn[nH]c2CN(C)C)[C@@H]1c1ccccc1)c1cc(C(F)(F)F)cc(C(F)(F)F)c1 [Test Compound B, 2-(S)-(1-(R)-(3,5-bis(trifluoromethyl)phenyl)ethoxy)-4-(5-(dimethylamino)methyl-1,2,3-triazol-4-yl)methyl-3-(R)-phenylmorpholine]
attenuation of separation-induced vocalisations when administered alone (guinea-pig pups; 0.25 mg/kg s.c. alone): failure | potentiation of the inhibitory effect of buspirone on separation-induced vocalisations (guinea-pig pups; 0.25 mg/kg s.c. with buspirone 0.25 mg/kg s.c.): failure | potentiation of the inhibitory effect of fluoxetine on separation-induced vocalisations (guinea-pig pups; 0.25 mg/kg s.c. with fluoxetine 2 mg/kg i.p.): failure

CN(C)CCCN1c2ccccc2CCc2ccccc21 [imipramine, reference compound]
guinea-pig vocalisation ID50 (guinea-pig pups; s.c.): 5.4 mg/kg s.c. | foot-tapping ID50 (gerbils; s.c., foot-tapping induced by substance P): 3.8 mg/kg s.c.

O=C1CC2(CCCC2)CC(=O)N1CCCCN1CCN(c2ncccn2)CC1 [buspirone, reference compound]
attenuation of separation-induced vocalisations compared with baseline (guinea-pig pups; 0.25 mg/kg s.c. alone): approximately 25% | guinea-pig vocalisation ID50 (guinea-pig pups; s.c.): 0.5 mg/kg s.c.

C[C@@H](O[C@H]1OCCN(Cc2n[nH]c(=O)[nH]2)[C@H]1c1ccc(F)cc1)c1cc(C(F)(F)F)cc(C(F)(F)F)c1 [2-(R)-(1-(R)-(3,5-bis(trifluoromethyl)phenyl)ethoxy)-3-(S)-(4-fluorophenyl)-4-(3-(5-oxo-1H,4H-1,2,4-triazolo)methyl)morpholine]
guinea-pig vocalisation ID50 (guinea-pig pups; p.o., 4 hrs. pretreatment): ID50 = 0.73 mg/kg p.o. | gerbil foot-tapping (5 mins.) ID50 (gerbils): ID50 = 0.36 mg/kg i.v. | gerbil foot-tapping (24 hrs.) ID50 (gerbils): ID50 = 0.33 mg/kg i.v. | ID90 in the ferret emesis assay (ferrets): < 3 mg/kg p.o.

CN1C(=O)CN=C(c2ccccc2)c2cc(Cl)ccc21 [diazepam, reference compound]
guinea-pig vocalisation ID50 (guinea-pig pups; s.c.): 0.7 mg/kg s.c.

C[C@@H](O[C@H]1OCCN(Cc2nn[nH]c2CN(C)C)[C@H]1c1ccccc1)c1cc(C(F)(F)F)cc(C(F)(F)F)c1 [Test Compound A, 2-(R)-(1-(R)-(3,5-bis(trifluoromethyl)phenyl)ethoxy)-4-(5-(dimethylamino)methyl-1,2,3-triazol-4-yl)methyl-3-(S)-phenylmorpholine]
attenuation of separation-induced vocalisations compared with baseline (guinea-pig pups; 0.25 mg/kg s.c. alone): approximately 25% | guinea-pig vocalisation ID50 (guinea-pig pups; s.c.): ID50 = 0.5 mg/kg s.c. | gerbil foot-tapping (5 mins.) ID50 (gerbils): ID50 = 0.12 mg/kg i.v. | gerbil foot-tapping (24 hrs.) ID50 (gerbils): ID50 = 0.17 mg/kg i.v.
